Reference: US20240374631A1, “A COMPOSITION FOR IMPROVING GUT MICROBIOTA, BEHAVIOURAL PATTERN, ALPHA-SYNUCLEIN LEVELS, SLEEP PATTERN AND/OR SERUM MELATONIN” (GN Corporation Co Ltd, priority 2021, published 2024)

System: gut microbiota
Assay: Gut microbiome analysis (16S rRNA sequencing of fecal samples) in STAM model of NASH
Format: in vivo, C57BL/6J mice
Details: pre (baseline)
From the text: The study is reported in accordance with Animal Research: Reporting of In Vivo Experiments (ARRIVE) guidelines. C57BL/6J mice were obtained from Japan SLC, Inc. (Japan). All animals used in this study were cared for under the following guidelines: Act on Welfare and Management of Animals (Ministry of the Environment, Japan, Act No. 105 of Oct. 1, 1973), standards relating to the care and management of laboratory animals and relief of pain (Notice No. 88 of the Ministry of the Environment, Japan, Apr. 28, 2006) and the guidelines for proper conduct of animal experiments (Science Council of Japan, Jun. 1, 2006). Protocol approvals were obtained from SMC Laboratories, Japan's IACUC (Study reference no: […] Mice were maintained in a specific pathogen-free (SPF) facility under controlled conditions of temperature (23±3° C.), humidity (50±20%), lighting (12-hour artificial light and dark cycles; light from 8:00 to 20:00) and air exchange. The STAM model of NASH was induced as previously described [D10]. Mice were given a single subcutaneous injection of 200 μg streptozotocin (STZ, Sigma-Aldrich, USA) solution 2 days after birth and fed with a high-fat diet (HFD, 57 kcal % fat, Cat #HFD32, CLEA Japan, Inc., Japan) from 4-9 weeks of age. All mice develop liver steatosis and diabetes and at […] mice had established steatohepatitis, histologically. Studygroups: There were five study groups, described below. Eight mice were included in each study group. Eight NASH mice were orally administered vehicle supplemented with AFO-202 Beta Glucan at a dose of 1 mg/kg in a volume of 5 mL/kg once daily from 6 to 9 weeks of age. Eight NASH mice were orally administered vehicle supplemented with Telmisartan at a dose of 10 mg/kg once daily from 6 to 9 weeks of age. Frequency: Fecal samples were collected at the 6 weeks of age (before administration) and 9 weeks of age (before sacrifice). Procedure: At 6 weeks of age, fecal samples were collected from each mouse by clean catch method. […] A sterile petri dish was placed on the bench. Gently massage the abdomen, position the bottom of mouse over a fresh petri dish, and collect 1-2 fecal pellets. At sacrifice, fecal samples were aseptically collected from cecum. The tubes with feces were placed on ice immediately. These tubes were snap frozen in liquid nitrogen and stored at -80° C. for shipping. In this analysis, the 16S rRNA sequence data acquired by the next-generation sequencer from the fecal […] was used to perform community analysis using the QIIME2 program for microbial community analysis. The raw read data in FASTQ format output from the next-generation sequencer was trimmed to remove adapter sequences and low QV regions that may be included in the data. Cutadapt was used to remove adapter sequences from DNA sequencing reads. Trimmomatic was used as read trimming tool for Illumina NGS data. The adapter sequence was trimmed using the adapter trimming program “cutadapt” if the Trimming of the region at the end of the read sequence overlapped the corresponding sequence by at least one base (mismatch tolerance: 20%). When reads containing N were present in at least one of Read1 and Read2, both Read1 and Read2 were removed. Trimming of low QV regions was performed on the read data after processing using the QV trimming program “Trimmomatic” under the following conditions. The window of 20 bases is slid from the 5' side, and the area where the average QV is less than 20 is trimmed. After trimming, only the reads with more than 50 bases remaining in both Read1 and Read2 were taken as output. The microbial community analysis based on 16S rRNA sequence was performed on the sequence data trimmed in the previous section using the microbial community analysis program “QIIME2”. The annotation program “sklearn” included in QIIME2 is used to annotate the ASV (OTU) sequences. […]

CCCc1nc2c(C)cc(-c3nc4ccccc4n3C)cc2n1Cc1ccc(-c2ccccc2C(=O)O)cc1 [Telmisartan]
Abundance: Ruminococcaceae, Oscillospira, — (line r193): 57 | Abundance: Lactobacillaceae, Lactobaccilus, reuteri (line r194): 0 | Abundance: Coriobacteriaceae, Adlercreutzia, — (line r195): 58 | Abundance: Lachnospiraceae, —, — (line r196): 0 | Abundance: S24-7, —, — (line r197): 64 | Abundance: Turicibacteraceae, Turicibacter, — (line r198): 0 | Abundance: S24-7, —, — (line r199): 45 | Abundance: Rikenellaceae, —, — (line r200): 25 | Abundance: Enterobacteriaceae, Other, Other (line r201): 0 | Abundance: Rikenellaceae, Other, Other (line r202): 47 | Abundance: Lactobacillaceae, Lactobaccilus, Other (line r204): 0 | Abundance: —, —, — (line r205): 60 | Abundance: S24-7, —, — (line r206): 27 | Abundance: S24-7, —, — (line r207): 35 | Abundance: —, —, — (line r208): 85 | Abundance: Enterobacteriaceae, Klebsiella, Other (line r209): 0 | Abundance: —, —, — (line r210): 63 | Abundance: Lachnospiraceae, Other, Other (line r211): 48 | Abundance: Ruminococcaceae, Oscillospira, — (line r212): 0 | Abundance: Ruminococcaceae, Oscillospira, — (line r213): 71 | Abundance: Bacteroidaceae, Bacteroides, acidifaciens (line r214): 27 | Abundance: Erysipelotrichaceae, —, — (line r215): 51 | Abundance: Lachnospiraceae, Dorea, — (line r216): 98 | Abundance: Enterobacteriaceae, Enterobacter, Other (line r217): 0 | Abundance: Ruminococcaceae, Oscillospira, — (line r218): 42 | Abundance: Ruminococcaceae, Other, Other (line r219): 61 | Abundance: Ruminococcaceae, Oscillospira, — (line r220): 0 | Abundance: Rikenellaceae, —, — (line r221): 31 | Abundance: Lachnospiraceae, Other, Other (line r223): 98 | Abundance: Other, Other, Other (line r224): 18 | Abundance: Ruminococcaceae, Oscillospira, — (line r225): 79 | Abundance: S24-7, —, — (line r226): 38 | Abundance: Lachnospiraceae, —, — (line r227): 3 | Abundance: Streptococcaceae, Staphylococcus, — (line r228): 0 | Abundance: —, —, — (line r229): 96 | Abundance: —, —, — (line r230): 87 | Abundance: —, —, — (line r231): 0 | Abundance: Other, Other, Other (line r232): 10 | Abundance: Aerococcaceae, Aerococcus, — (line r233): 0 | Abundance: Ruminococcaceae, —, — (line r234): 0 | Abundance: —, —, — (line r235): 61 | Abundance: Streptococcaceae, Staphylococcus, — (line r236): 0 | Abundance: Ruminococcaceae, Oscillospira, — (line r237): 0 | Abundance: —, —, — (line r238): 0 | Abundance: Ruminococcaceae, Ruminococcus, — (line r239): 0 | Abundance: —, —, — (line r240): 6 | Abundance: Other, Other, Other (line r241): 0 | Abundance: Ruminococcaceae, Oscillospira, — (line r242): 30 | Abundance: Lachnospiraceae, [Ruminococcus], gnavus (line r243): 27 | Abundance: Lachnospiraceae, —, — (line r244): 0 | Abundance: Other, Other, Other (line r245): 0 | Abundance: Ruminococcaceae, Oscillospira, — (line r246): 37 | Abundance: —, —, — (line r247): 69 | Abundance: Other, Other, Other (line r248): 0 | Abundance: Other, Other, Other (line r249): 0 | Abundance: Other, Other, Other (line r250): 68 | Abundance: Lachnospiraceae, Clostridium, Other (line r251): 0 | Abundance: Lachnospiraceae, —, — (line r252): 0 | Abundance: Other, Other, Other (line r253): 13 | Abundance: Other, Other, Other (line r254): 23 | Abundance: Ruminococcaceae, Oscillospira, — (line r255): 25 | Abundance: Desulfovibrionaceae, —, — (line r256): 23 | Abundance: Dehalobacteriaceae, Dehalobacterium, — (line r257): 24 | Abundance: Ruminococcaceae, Ruminococcus, — (line r259): 44 | Abundance: Lachnospiraceae, Coprococcus, — (line r260): 23 | Abundance: Ruminococcaceae, Oscillospira, — (line r261): 0 | Abundance: Other, Other, Other (line r262): 0 | Abundance: Lachnospiraceae, Coprococcus, — (line r263): 34 | Abundance: Ruminococcaceae, Oscillospira, — (line r264): 87 | Abundance: Christensenellaceae, —, — (line r265): 37 | Abundance: S24-7, —, — (line r266): 44 | Abundance: Ruminococcaceae, Oscillospira, — (line r267): 95 | Abundance: Lachnospiraceae, Coprococcus, — (line r268): 11 | Abundance: Lachnospiraceae, Other, Other (line r269): 0 | Abundance: Erysipelotrichaceae, Clostridium, cocleatum (line r271): 16 | Abundance: —, —, — (line r272): 92 | Abundance: Desulfovibrionaceae, Bilophila, — (line r273): 11 | Abundance: —, —, — (line r274): 107 | Abundance: Corynebacteriaceae, Corynebacterium, stationis (line r275): 0 | Abundance: Lachnospiraceae, Other, Other (line r276): 0 | Abundance: Lachnospiraceae, Other, Other (line r277): 0 | Abundance: Lachnospiraceae, —, — (line r278): 14 | Abundance: Lachnospiraceae, —, — (line r279): 31 | Abundance: —, —, — (line r280): 108 | Abundance: —, —, — (line r281): 0 | Abundance: —, —, — (line r282): 0 | Abundance: Ruminococcaceae, —, — (line r283): 27 | Abundance: —, —, — (line r284): 96 | Abundance: Lachnospiraceae, —, — (line r285): 90 | Abundance: Dehalobacteriaceae, Dehalobacterium, — (line r286): 3 | Abundance: Other, Other, Other (line r287): 0 | Abundance: Streptococcaceae, Streptococcus, luteciae (line r288): 12 | Abundance: —, —, — (line r289): 0 | Abundance: S24-7, —, — (line r290): 0 | Abundance: Ruminococcaceae, Ruminococcus, — (line r292): 10 | Abundance: Lachnospiraceae, Clostridium, Other (line r293): 26 | Abundance: —, —, — (line r294): 10 | Abundance: Ruminococcaceae, Oscillospira, — (line r295): 11 | Abundance: Lachnospiraceae, Coprococcus, — (line r296): 20 | Abundance: —, —, — (line r297): 12 | Abundance: S24-7, —, — (line r298): 0 | Abundance: Lachnospiraceae, —, — (line r300): 0 | Abundance: Ruminococcaceae, Oscillospira, — (line r301): 54
